# Data published in patent US20060252714A1, “Pharmaceutical compositions and methods for treating multidrug resistant cancer” (priority 2003, published 2006).
# Counter-ions that a name gives are not always drawn. Like-named read-outs stand apart in the source and are kept apart here.
# How the values were obtained:
# [1] = cited from earlier work; for Toxicity: at the toxic dose range of the same line
# [2] = test system: MCF-7/wt; assay: Breast cancer clonogenic assay, MCF-7/wt; type: cell-based; details: Homo sapiens, MCF7, 24 hours treatment, clonogenicity, read-out: IC90 of cytotoxic drugs on MCF-7/wt
# Experimental: (§1) The toxicity of the cytotoxic drugs was measured by clonogenicity assay. […] Beginning at 1 μM, ketotifen restored doxorubicin toxicity while at 10 μM, the MDR phenotype of MCF-7/adr cells was completely reversed. Over this concentration range, ketotifen itself is non-toxic to MCP-7/adr cells. […] As summarized in Table 3, IC90 levels on MCF-7/adr cells in the presence of ketotifen are almost identical to those for parental MCF-7 cells. […] Thus, ketotifen is a specific reversing agent for MDR associated with P-gp.
# (§2) MCF-7 (MCF-7/wt) and its multidrug resistant variant MCF-7/adr cells were used. MCF-7/mx and MCF-7/vp cell lines were also used. Other cell lines could also be used. […] The MCF-7/vp cell line was selected with etoposide and overexpresses Multidrug Resistance-associated Protein gene (MRP). All the cell lines were grown routinely as monolayer culture in Dulbecco's Minimal Essential Media (DME) supplemented with L-glutamine (2 mM), penicillin, streptomycin and 10% heat-inactivated fetal bovine serum SUBS, GIBCO) in an atmosphere of 5% CO2 at 37° C. The cell lines were passaged weekly.
# Exponentially growing MCF-7/wt and its three mutants MCF-7/adr, MCF-7/mx and MCF-7/vp were trypsinized, washed with fresh medium and plated in 6-well plates at a density of 1×10^5/ml. […] Both adherent and non-adherent cells were collected and washed with fresh medium. Cell aliquots (5×10^3) were plated in 1 ml of 0.3% agar over 1 ml of 0.5% agar underlayer prepared in IMDM containing 10% horse serum (GIBCO). The upper layer consisted of 20% FBS, 10 μg/ml of bovine insulin, 2.5 mg/ml of hydrocortisone, 5×10^−7M of 17-b-estradiol (Sigma) and 50 ng/ml of EGF (R & D Systems). Colonies larger than 50 μm in size were scored after 14 days of incubation at 37° C. in a humidified atmosphere of 5% CO2 in air.
# [3] = test system: MCF-7/adr cells; assay: Breast cancer clonogenic assay, MCF-7/adr; type: cell-based, Human; details: for IC90: Homo sapiens, NCI/ADR-RES, absence of ketotifen, read-out: IC90 of cytotoxic drugs on MCF-7/adr, −ke
# Experimental: MCF-7/adr cells were treated with different concentrations of reversal compounds with or without 2 μM doxorubicin for 24 hours. Cells were harvested, and plated for growth of breast cancer colonies in triplicates. […] DXN: doxorubicin.
# FIG. 2 Influence of 10 μM of ketotifen on the toxicities of four cytotoxic drugs. MCF-7/adr cells were treated with different concentrations of chemotherapeutic agents in the presence or absence of 10 μM ketotifen for 24 hours. Cells were harvested, washed and plated for growth of breast cancer colonies as described in the Materials and Methods. […] Ke: ketotifen.
# The toxicity of the cytotoxic drugs was measured by clonogenicity assay.
# as §2, with “MCF-7/mx” for “MCF-7 (MCF-7/wt) and its multidrug resistant variant MCF-7/adr cells were used. MCF-7/mx”
# Both adherent and non-adherent cells were collected and washed with fresh medium. Cell aliquots (5×10^3) were plated in 1 ml of 0.3% agar over 1 ml of 0.5% agar underlayer prepared in IMDM containing 10% horse serum (GIBCO). The upper layer consisted of 20% FBS, 10 μg/ml of bovine insulin, 2.5 mg/ml of hydrocortisone, 5×10^−7M of 17-b-estradiol (Sigma) and 50 ng/ml of EGF (R & D Systems).
# [4] = test system: MCF-7/adr cells; assay: Breast cancer clonogenic assay, MCF-7/adr; type: cell-based; details: Homo sapiens, NCI/ADR-RES, presence of 10 mM of ketotifen (so in the source), read-out: IC90 of cytotoxic drugs on MCF-7/adr, +ke
# [5] = Modulation of doxorubicin toxicity: survival; details: doxorubicin 15 mg/kg i.p., alone or after labelled reversal agent 25 mg/kg i.p.
# From the text: Female Balb/c mice (8-10 weeks of age, 20-22 g of body weight) were purchased from Jackson Laboratory (Maine, USA). Protocols were approved by the Animal Care Committee of the University Health Network. […] All the treatments were administrated via i.p. After treatment, mice were kept in sterile environment for six to eight weeks. […] Three mice from each group were sacrificed on day 4-post treatment. Hearts were removed immediately and fixed in 10% neutral buffered formalin. Tissue sections were made from heart tissue and stained with hematoxylin and eosin or with 1% Toluidine blue to identify mast cells. All the slides were evaluated by light microscopy for cardiac damage, mast cell density and degranulation.
# All the colony data were analyzed by two-way analysis of variance (ANOVA), with differences between individual means determined by Bonferroni's post-tests. Data were expressed as means ±SEM. The Kaplan-Meier estimate was used to determine differences in the survival periods for mice following different drug combination treatments.
# [6] = test system: P388/adr murine leukemia cells; assay: p388 multi-drug resistant leukemia model; type: in vivo, Mice; details: ketotifen 75 mg/kg i.p. 30 minutes before doxorubicin 4 mg/kg i.p., once per week
# [7] = molecular target: P-gp (Homo sapiens, UniProt P08183); details: 2.5 h, 2 μM
# [8] = test system: MCF-7/vp cells; assay: Breast cancer clonogenic assay, MCF-7/vp (MRP overexpressing); type: cell-based, Human
# Experimental: (§3) FIG. 3 Ketotifen fails to reverse MDR of MCF-7/mx and MCF-7/vp cell lines. MCF-7/mx and MCF-7/vp cell lines were treated and assayed as described in FIGS. 1 and 2. […] Ke: ketotifen.
# as §1
# (§4) MCF-7 (MCF-7/wt) and its multidrug resistant variant MCF-7/adr cells were used. MCF-7/mx and MCF-7/vp cell lines were also used. Other cell lines could also be used. […] The MCF-7/vp cell line was selected with etoposide and overexpresses Multidrug Resistance-associated Protein gene (MRP). […]
# (§5) Exponentially growing MCF-7/wt and its three mutants MCF-7/adr, MCF-7/mx and MCF-7/vp were trypsinized, washed with fresh medium and plated in 6-well plates at a density of 1×10^5/ml. […] Colonies larger than 50 μm in size were scored after 14 days of incubation at 37° C. in a humidified atmosphere of 5% CO2 in air.
# [9] = test system: MCF-7/mx; assay: Breast cancer clonogenic assay, MCF-7/mx (BCRP overexpressing); type: cell-based, Human
# Experimental: as §3, §1, §4, §5
# [10] = with 2 μM doxorubicin, 24 hours
# Sequence of P-gp (P08183 whole entry): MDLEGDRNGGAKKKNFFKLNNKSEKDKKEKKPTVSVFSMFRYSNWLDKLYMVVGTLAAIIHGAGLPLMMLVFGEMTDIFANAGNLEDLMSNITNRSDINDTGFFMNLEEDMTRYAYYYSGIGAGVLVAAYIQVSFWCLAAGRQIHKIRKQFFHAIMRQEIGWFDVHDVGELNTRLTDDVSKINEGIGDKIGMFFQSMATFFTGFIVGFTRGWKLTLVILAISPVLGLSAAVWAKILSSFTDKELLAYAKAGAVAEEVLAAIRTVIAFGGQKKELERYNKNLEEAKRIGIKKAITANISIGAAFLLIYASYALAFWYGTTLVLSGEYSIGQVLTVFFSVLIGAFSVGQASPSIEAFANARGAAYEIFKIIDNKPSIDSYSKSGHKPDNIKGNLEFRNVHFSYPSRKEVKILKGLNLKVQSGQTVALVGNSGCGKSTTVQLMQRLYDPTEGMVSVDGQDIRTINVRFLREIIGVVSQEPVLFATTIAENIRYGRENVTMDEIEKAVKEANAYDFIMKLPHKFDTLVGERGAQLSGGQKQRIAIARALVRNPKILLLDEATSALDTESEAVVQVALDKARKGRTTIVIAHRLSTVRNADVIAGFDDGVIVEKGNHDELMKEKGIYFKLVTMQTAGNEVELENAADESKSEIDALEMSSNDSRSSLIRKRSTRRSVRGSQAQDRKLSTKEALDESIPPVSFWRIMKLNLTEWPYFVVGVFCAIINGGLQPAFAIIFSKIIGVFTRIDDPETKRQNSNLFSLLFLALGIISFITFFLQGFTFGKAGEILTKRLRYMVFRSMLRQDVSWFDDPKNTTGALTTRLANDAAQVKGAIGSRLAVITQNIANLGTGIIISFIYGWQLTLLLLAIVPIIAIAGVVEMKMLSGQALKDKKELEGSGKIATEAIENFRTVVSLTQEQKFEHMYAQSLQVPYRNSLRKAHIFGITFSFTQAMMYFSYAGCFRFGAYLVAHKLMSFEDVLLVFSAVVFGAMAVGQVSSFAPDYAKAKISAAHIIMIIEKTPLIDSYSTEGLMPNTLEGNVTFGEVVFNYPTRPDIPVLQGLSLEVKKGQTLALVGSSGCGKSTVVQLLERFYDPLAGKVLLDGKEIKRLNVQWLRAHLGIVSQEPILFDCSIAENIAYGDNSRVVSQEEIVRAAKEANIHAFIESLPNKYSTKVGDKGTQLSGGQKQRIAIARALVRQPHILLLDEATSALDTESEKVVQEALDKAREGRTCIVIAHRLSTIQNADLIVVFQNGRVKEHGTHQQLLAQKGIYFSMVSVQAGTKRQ
smiles,measurement,setting,value
COc1cc(NS(C)(=O)=O)ccc1Nc1c2ccccc2nc2ccccc12 [Amsacrine],Toxicity,[1],Ventricular arrhythmia
CS(=O)(=O)OCCCCOS(C)(=O)=O [Bisulfan],Toxic dose range,[1]; IV unless otherwise indicated,Oral daily dose
same,Toxicity,[1],Endocardial fibrosis
O=P1(N(CCCl)CCCl)NCCCO1 (centres unmarked) [Cyclophosphamide],Toxic dose range,"[1]; over 2 d, IV",>100 to 120 mg/kg
COc1cccc2c1C(=O)c1c(O)c3c(c(O)c1C2=O)C[C@@](O)(C(C)=O)C[C@@H]3O[C@H]1C[C@H](N)[C@H](O)[C@H](C)O1 [Daunorubicin],Toxicity,[1],Same toxocity as doxorubicin
same,Toxic dose range,"[1]; total dose, IV",>550 mg/m^2
"COc1cccc2c1C(=O)c1c(O)c3c(c(O)c1C2=O)C[C@@](O)(C(=O)CO)C[C@@H]3O[C@H]1C[C@H](N)[C@H](O)[C@H](C)O1 [Doxorubicin, 8S,10S)-10-[(3-amino-2,3,6-trideoxy-a-L-lyxo-hexopyranosyl)oxy]-8-glycolyl-7,8,9,10-tetrahydro-6,8,11-trihydroxy-1-methoxy-5,12-naphthacenedione hydrochloride]",IC90,[2],120 nM
same,IC90,[3],> 10000 nM
same,IC90,[4],180 nM
same,median survival time,[5],19.3 days
same,survival rate at day 30,[5],42%
O=c1[nH]cc(F)c(=O)[nH]1 [Fluorouracil],Toxicity,[1],Angina/myocardial infarction
CO[C@@]12[C@H](COC(N)=O)C3=C(C(=O)C(C)=C(N)C3=O)N1C[C@@H]1N[C@@H]12 [Mitomycin],Toxic dose range,[1]; IV unless otherwise indicated,Conventional dose
O=C1c2c(O)ccc(O)c2C(=O)c2c(NCCNCCO)ccc(NCCNCCO)c21 [Mitoxantrone],IC90,[2],10 nM
same,IC90,[3],220 nM
same,IC90,[4],20 nM
CC(=O)O[C@H]1C(=O)[C@@]2(C)[C@H]([C@H](OC(=O)c3ccccc3)[C@]3(O)C[C@H](OC(=O)[C@H](O)[C@@H](NC(=O)c4ccccc4)c4ccccc4)C(C)=C1C3(C)C)[C@]1(OC(C)=O)CO[C@@H]1C[C@@H]2O [Paclitaxel],Toxicity,[1],Bradycardia
"COc1cc([C@@H]2c3cc4c(cc3[C@@H](O[C@@H]3O[C@@H]5CO[C@@H](C)O[C@H]5[C@H](O)[C@H]3O)[C@H]3COC(=O)[C@H]23)OCO4)cc(OC)c1O [VP-16, etoposide]",IC90,[2],17000 nM
same,IC90,[3],220000 nM
same,IC90,[4],20000 nM
CC[C@]1(O)C[C@@H]2CN(CCc3c([nH]c4ccccc34)[C@@](C(=O)OC)(c3cc4c(cc3OC)N(C)[C@H]3[C@@](O)(C(=O)OC)[C@H](OC(C)=O)[C@]5(CC)C=CCN6CC[C@]43[C@@H]65)C2)C1 [Vinblastine],IC90,[2],800 nM
same,IC90,[3],410000 nM
same,IC90,[4],1200 nM
CC[C@]1(O)C[C@H]2CN(CCc3c([nH]c4ccccc34)[C@@](C(=O)OC)(c3cc4c(cc3OC)N(C=O)[C@H]3[C@@](O)(C(=O)OC)[C@H](OC(C)=O)[C@]5(CC)C=CCN6CC[C@]43[C@@H]65)C2)C1 [Vincristine],Toxic dose range,[1]; IV unless otherwise indicated,Conventional dose
same,Toxicity,[1],Myocardial Infarction
"CN1CCC(=C2c3ccccc3CC(=O)c3sccc32)CC1.O=C(O)/C=C/C(=O)O [ketotifen, 4-(1-Methyl-4-piperidylidene)-4H-benzo[4,5]cyclohepta[1,2-b] thiophen-10(9H)-one hydrogen fumarate]","sensitivity to mitoxantrone, VP-16 and vinblastine",[3]; 10 μM ketotifen,restored
same,reversal of doxorubicin resistance,[3]; ketotifen compared with verapamil,reverse resistance at similar concentrations
same,toxicity of ketotifen itself,"[3]; over 1 to 10 μM, without doxorubicin",non-toxic
same,ketotifen concentration at which MDR phenotype was completely reversed,[3]; [10],10 µM
same,ketotifen concentration from which doxorubicin toxicity is restored,[3]; [10],≥ 1 µM
same,extension of survival compared to doxorubicin alone,[6],2 days
same,increase of doxorubicin relative fluorescence,[7],50%
same,influence on toxicity of VP-16,[8],influenced neither
same,median survival time,[5],23.2 days
same,survival rate at day 30,[5],57%
same,influence on toxicity of mitoxantrone,[9],influenced neither
COc1ccc(CCN(C)CCCC(C#N)(c2ccc(OC)c(OC)c2)C(C)C)cc1OC (centres unmarked) [verapamil],median survival time,[5],12.3 days
same,survival rate at day 30,[5],0%
